This is an account of results in ChEMBL document CHEMBL5113524, “Substrates and Inhibitors of the Organic Cation Transporter 3 and Comparison with OCT1 and OCT2” (J Med Chem, 2022).

In series [1] the target is T1, OCT3 (SLC22A3) (Homo sapiens, UniProt O75751).
T1 sequence (O75751 whole entry): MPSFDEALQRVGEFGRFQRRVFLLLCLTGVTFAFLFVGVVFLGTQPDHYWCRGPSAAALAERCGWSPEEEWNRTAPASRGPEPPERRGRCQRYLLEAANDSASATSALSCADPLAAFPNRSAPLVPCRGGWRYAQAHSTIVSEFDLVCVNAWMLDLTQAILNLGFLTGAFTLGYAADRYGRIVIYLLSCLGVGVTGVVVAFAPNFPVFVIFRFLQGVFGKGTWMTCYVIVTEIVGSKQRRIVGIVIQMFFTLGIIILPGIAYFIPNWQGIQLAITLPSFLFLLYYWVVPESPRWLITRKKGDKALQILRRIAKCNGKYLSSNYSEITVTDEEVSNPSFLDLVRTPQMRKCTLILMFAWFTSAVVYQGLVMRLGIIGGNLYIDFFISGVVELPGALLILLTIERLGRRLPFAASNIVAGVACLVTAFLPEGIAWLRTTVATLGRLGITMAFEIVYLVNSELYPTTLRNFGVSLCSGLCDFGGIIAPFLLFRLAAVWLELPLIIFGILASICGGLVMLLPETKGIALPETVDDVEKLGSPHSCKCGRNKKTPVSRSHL
The experiment in a line: Substrate activity at human OCT3 overexpressed in HEK293 cells assessed as uptake ratio incubated for 2 mins by LC-MS/MS analysis. Type of series: ADME, cell-based. To be noted: HEK293 cells overexpressing OCT3.

Series [2] addresses OCT2 (Homo sapiens, UniProt O15244). As to the kind of experiment: Substrate activity at human OCT2 overexpressed in HEK293 cells assessed as uptake ratio incubated for 2 mins by LC-MS/MS analysis. The class given is ADME, cell-based. To be noted: HEK293 cells overexpressing OCT2.
Series [3] concerns the target OCT1 (Homo sapiens, UniProt O15245). As to the kind of experiment: Substrate activity at OCT1 (unknown origin) assessed as uptake ratio. Type of series: ADME, cell-based. To be noted: HEK293 cells.
Series [4] has as its target T1, OCT3 (SLC22A3). As to the kind of experiment: (§1) Inhibition of human OCT3 overexpressed in HEK293 cells assessed as intracellularly accumulation of ASP+ at 20 uM incubated for 5 mins by HPLC-MS/MS analysis relative to control. The class given is cell-based. Particulars: HEK293 cells overexpressing OCT3, probe ASP+; call rule not given here.
The target of series [5] is T1, OCT3 (SLC22A3). The experiment in a line: Inhibition of OCT3 (unknown origin) overexpressed in HEK293 cells assessed as intracellular accumulation of ASP+ incubated for 2 mins by Analyst AD plate reader method relative to control. Type of series: cell-based. Also noted: concentration or dose not given beside the values. To be noted: HEK293 cells overexpressing OCT3, probe ASP+.

In series [6] the target is T1, OCT3 (SLC22A3). The experiment in a line: Inhibition of human OCT3 mediated (S,S)-Ethambutol uptake overexpressed in HEK293 cells at 20 uM incubated for 5 mins by HPLC-MS/MS analysis relative to control. Type of series: cell-based. Particulars: HEK293 cells overexpressing OCT3, probe (S,S)-Ethambutol.
Series [7] has as its target T1, OCT3 (SLC22A3). The experiment in a line: Inhibition of human OCT3 mediated ASP+ uptake overexpressed in HEK293 cells at 20 uM incubated for 5 mins by HPLC-MS/MS analysis relative to control. Type of series: cell-based. To be noted: HEK293 cells overexpressing OCT3, probe ASP+.
Series [8] deals with T1, OCT3 (SLC22A3). As to the kind of experiment: Inhibition of human OCT3 mediated N-Ethyllidocaine uptake overexpressed in HEK293 cells at 20 uM incubated for 5 mins by HPLC-MS/MS analysis relative to control. Particulars: HEK293 cells overexpressing OCT3, probe N-Ethyllidocaine. Type of series: cell-based.
Series [9] deals with T1, OCT3 (SLC22A3). As to the kind of experiment: Inhibition of human OCT3 mediated Famotidine uptake overexpressed in HEK293 cells at 20 uM incubated for 5 mins by HPLC-MS/MS analysis relative to control. The class given is cell-based. To be noted: HEK293 cells overexpressing OCT3, probe Famotidine.
Series [10] concerns the target T1, OCT3 (SLC22A3). The experiment in a line: Inhibition of human OCT3 mediated methylscopolamine uptake overexpressed in HEK293 cells at 20 uM incubated for 5 mins by HPLC-MS/MS analysis relative to control. The class given is cell-based. Particulars: HEK293 cells overexpressing OCT3, probe methylscopolamine.
The target of series [11] is T2, Solute carrier family 22 member 3 (Homo sapiens, UniProt O75751).
T2 sequence (O75751 whole entry): T1 sequence (O75751 whole entry)
The description is as §1. Type of series: cell-based. Particulars: hek293, 5 min, 20 µM.

Series [12] deals with Solute carrier family 22 member 2 (Homo sapiens) (UniProt O15244). The experiment in a line: Inhibition of OCT2 mediated (unknown origin) assessed as intracellular accumulation of ASP+ relative to control.
Sequence of Solute carrier family 22 member 2 (Homo sapiens) (O15244 whole entry, looked up): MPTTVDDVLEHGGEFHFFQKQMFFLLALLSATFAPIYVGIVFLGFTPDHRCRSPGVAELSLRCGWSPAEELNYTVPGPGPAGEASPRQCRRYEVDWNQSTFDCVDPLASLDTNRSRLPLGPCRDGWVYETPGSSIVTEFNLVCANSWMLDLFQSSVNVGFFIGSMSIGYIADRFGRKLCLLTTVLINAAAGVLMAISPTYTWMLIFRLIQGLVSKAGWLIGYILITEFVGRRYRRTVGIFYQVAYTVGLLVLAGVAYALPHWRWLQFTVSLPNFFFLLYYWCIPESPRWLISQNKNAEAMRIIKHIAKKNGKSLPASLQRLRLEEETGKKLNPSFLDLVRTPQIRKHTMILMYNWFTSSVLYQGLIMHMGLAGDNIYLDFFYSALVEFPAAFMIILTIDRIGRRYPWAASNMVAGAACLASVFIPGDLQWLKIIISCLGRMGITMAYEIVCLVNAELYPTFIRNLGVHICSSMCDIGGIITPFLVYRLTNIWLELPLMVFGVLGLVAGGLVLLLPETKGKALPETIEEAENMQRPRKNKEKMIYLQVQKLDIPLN

The structures appear in SMILES notation.

Sequence of OCT2 (O15244 whole entry, looked up): as above
Sequence of OCT1 (O15245 whole entry, looked up): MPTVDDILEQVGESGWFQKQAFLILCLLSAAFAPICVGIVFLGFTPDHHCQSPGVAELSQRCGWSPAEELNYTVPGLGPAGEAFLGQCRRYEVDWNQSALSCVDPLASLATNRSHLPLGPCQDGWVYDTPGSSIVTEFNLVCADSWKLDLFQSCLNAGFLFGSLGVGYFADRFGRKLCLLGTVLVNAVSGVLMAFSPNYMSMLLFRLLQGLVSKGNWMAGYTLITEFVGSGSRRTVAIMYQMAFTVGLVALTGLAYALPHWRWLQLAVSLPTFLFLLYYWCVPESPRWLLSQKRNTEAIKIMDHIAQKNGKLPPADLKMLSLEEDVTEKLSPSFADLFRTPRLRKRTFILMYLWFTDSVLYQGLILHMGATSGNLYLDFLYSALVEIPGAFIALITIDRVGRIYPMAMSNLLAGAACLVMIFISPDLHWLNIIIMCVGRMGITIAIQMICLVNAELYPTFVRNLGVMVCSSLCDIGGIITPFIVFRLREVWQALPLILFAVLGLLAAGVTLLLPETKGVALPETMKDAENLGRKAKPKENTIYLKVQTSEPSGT

As to `CN(C)CCc1c[nH]c2ccc(C[C@H]3COC(=O)N3)cc12` [ZOLMITRIPTAN], the uptake ratio at 2 min turned out to be 22 in [1] and 1.2 in series [2]. The uptake ratio in [3] came out at 9.3.

Take `[H]/N=C(\N/C(=N/[H])NCCCCCCNC(=N)NC(=N)Nc1ccc(Cl)cc1)Nc1ccc(Cl)cc1` [CHLORHEXIDINE]: in series [4], the inhibition at 5 min, 20 µM was found to be 98.4%. Besides, the inhibition at 2 min in series [5] is 98.4%.

`[H]/N=C(/N)N/C(=N/[H])NCCc1ccccc1` [PHENFORMIN]: the uptake ratio at 2 min in series [1] was determined as 32.2.

Take `C[N+]1(C)[C@@H]2C[C@H](OC(=O)[C@H](CO)c3ccccc3)C[C@H]1[C@@H]1O[C@@H]12`: the inhibition at 5 min, 20 µM in [6] was found to be 27%; in series [7], 0%; in series [8] it was 21%; in [9], 40%.

Regarding `CC[N+](CC)(CC)CC(=O)Nc1c(C)cccc1C`, the uptake ratio at 2 min in series [1] came out at 50. For the same compound, the inhibition at 5 min, 20 µM in [6] was determined as 44%; in series [7], 16%; in [10], 15%; in [9], 52%.

Regarding `CN(C)CCc1c[nH]c2ccc(Cn3cncn3)cc12` [RIZATRIPTAN], the uptake ratio at 2 min in series [1] stood at 2.4; in series [2], 4.1. The uptake ratio in series [3] came out at 4.3.

As for `CNCC/C=C1\c2ccccc2CC(O)c2ccccc21` (stereo unspecified), the inhibition at 5 min, 20 µM in [4] was 86.7%.

For `CCCCC(CC)CNC(=N)NC(=N)NCCCCCCNC(=N)NC(=N)NCC(CC)CCCC` (stereo unspecified) [ALEXIDINE], the inhibition at 5 min, 20 µM in [4] is 103%. Besides, in series [5], the inhibition at 2 min was found to be 98.1%.

On to `CNCCC=C1c2ccccc2CCc2ccccc21` [NORTRIPTYLINE], for which the inhibition at 5 min, 20 µM in [4] worked out at 80%.

On to `N=C(N)N1Cc2ccccc2C(O)C1` (stereo unspecified), for which the uptake ratio at 2 min in [1] was 38.

`COc1ccc2[nH]cc(CCN)c2c1` [5-METHOXYTRYPTAMINE]: the uptake ratio at 2 min in series [1] turned out to be 2.2; in series [2], 7.1. The uptake ratio in series [3] came out at 3.8.

With `C[N+]1(CCC(C(N)=O)(c2ccccc2)c2ccccc2)CCCCC1`, the “inhibition (INH)” value in [11] is listed as “Active”.

For `CC(=O)S[C@@H]1CC2=CC(=O)CC[C@]2(C)[C@H]2CC[C@@]3(C)[C@@H](CC[C@@]34CCC(=O)O4)[C@H]12` [SPIRONOLACTONE], the inhibition in [12] stood at 84.2%. Further, the inhibition at 5 min, 20 µM in series [4] stood at 93.9%.

`CC(C)[N+]1(C)[C@@H]2CC[C@H]1C[C@@H](OC(=O)C(CO)c1ccccc1)C2` (stereo partly specified) [IPRATROPIUM]: in [4], the inhibition at 5 min, 20 µM was 79.1%. In addition, the inhibition at 2 min in series [5] worked out at 47.8%.

Consider `O=C(O[C@H]1C[C@H]2CC[C@@H](C1)[N+]21CCCC1)C(O)(c1ccccc1)c1ccccc1` [TROSPIUM], for which, in [11], the “inhibition (INH)” value is “Active”.

Regarding `C[C@@H](Oc1cc(-c2cnn(C3CCNCC3)c2)cnc1N)c1c(Cl)ccc(F)c1Cl` [CRIZOTINIB], the inhibition at 5 min, 20 µM in series [4] came out at 90.4%.

For the compound `CN(C)c1ccc(/C=C/c2cc[n+](C)cc2)cc1`, the inhibition at 5 min, 20 µM in [6] was determined as 51%; in series [10], 58%; in series [8], 70%; in series [9] it was 63%.

As for `Cc1nc2n(c(=O)c1CCN1CCC(c3noc4cc(F)ccc34)CC1)CCCC2O` (stereo unspecified) [PALIPERIDONE], the inhibition at 5 min, 20 µM in series [4] turned out to be 87.7%.

`Cc1ccc(O)c([C@H](CCN(C(C)C)C(C)C)c2ccccc2)c1` [TOLTERODINE]: in series [4], the inhibition at 5 min, 20 µM amounted to 96.1%.

As for `C[N+]1(C)[C@@H]2C[C@H](OC(=O)C(O)(c3cccs3)c3cccs3)C[C@H]1[C@@H]1O[C@@H]12`, the uptake ratio at 2 min in series [1] was determined as 50.

Consider `N=C(NCCCCCCNC(=N)NC(=N)Nc1ccc(Cl)cc1)NC(=N)Nc1ccc(Cl)cc1`, for which, in series [12], the inhibition came out at 105%.

Turning to `C[N+]1(CC2CC2)CC[C@]23c4c5ccc(O)c4O[C@H]2C(=O)CC[C@@]3(O)[C@H]1C5` (stereo partly specified) [METHYLNALTREXONE], the uptake ratio at 2 min in series [1] stood at 102.

As to `CN(C)c1ccc(C(=C2C=CC(=[N+](C)C)C=C2)c2ccc(N(C)C)cc2)cc1` [GENTIAN VIOLET], the inhibition in [12] worked out at 116%. The inhibition at 5 min, 20 µM in series [4] is 81.4%. In addition, the inhibition at 2 min in series [5] was found to be 107%.

`CN(C)CCC=C1c2ccccc2CC(O)c2ccccc21` (stereo unspecified): the inhibition at 5 min, 20 µM in series [4] is 79.3%.

For `CC[N+](CC)(CC)Cc1ccccc1`, in [1], the uptake ratio at 2 min was determined as 62.5. Moreover, the inhibition at 5 min, 20 µM in series [7] was 5%; in series [10], 49%.

Take `CN(C)CCC=C1c2ccccc2CCc2ccccc21` [AMITRIPTYLINE]: in series [4], the inhibition at 5 min, 20 µM was 80%.

With `C[N+]1(C)CCN(c2ccccc2)CC1` [DIMETHYLPHENYLPIPERAZINIUM], the uptake ratio at 2 min in [1] came to 46.

On to `CC(C)(C)NCC(O)c1ccc(O)c(O)c1` (stereo unspecified) [COLTEROL], for which the uptake ratio at 2 min in [1] is 53.

For the compound `Cc1cc(N)c2ccccc2[n+]1CCCCCCCCCC[n+]1c(C)cc(N)c2ccccc21`, in series [5], the inhibition at 2 min worked out at 66.6%.

For the compound `CC[C@@H](CO)NCCN[C@@H](CC)CO` [ETHAMBUTOL], the inhibition at 5 min, 20 µM in [7] is 7%; in [10] it was -13%; in series [8] it was -7%; in [9] it was -1%.

In the case of `CN[C@@H]1CCc2[nH]c3ccc(C(N)=O)cc3c2C1` [FROVATRIPTAN], the uptake ratio at 2 min in [1] amounted to 7.7; in series [2], 10.8. Moreover, the uptake ratio in series [3] worked out at 30.3.

As to `CCC(NC(C)C)C(O)c1ccc(O)c(O)c1` (stereo unspecified) [ISOETHARINE], the uptake ratio at 2 min in series [1] stood at 23.3.
